Measurements: patent US7771713B2, “Chemical composition that attract arthropods” (priority 1999, dated 2010)
Several values for one entry are separate records, joined by “and”; a condition that tells them apart may be missing. Equal values may be shown once.

Key:
Aedes aegypti [1] = experiment: Olfactometer attraction test, treatment port vs control port, approximately 75 female mosquitoes; type: in vivo; conditions: for LA Avg response: average of n = 51 trials, 200 μL of 1 μg/μL methanolic solution; for Acetone Avg response: average of n = 4 trials, 500 μL from a 60 mm diameter glass petri dish
Description: (§1) The tests were conducted in an olfactometer (55 ft^3/min airflow, 80° F., 60% R.H.) as described by Posey, J. Med. Entomol., 35, 330-334 (1998); and LA is lactic acid. Mosquitoes were allowed to settle at least one hour prior to testing. The olfactometer was cleaned after each battery of tests. Each battery consisted of three tests, conducted at 08:30, 11:00 and 13:00 hours local time. Each of the three tests was conducted in a separate cage. The control consisted of identical sample delivery devices and conditions compared to that of the treatment side. Both the treatment and control ports were opened and closed simultaneously when inserting a new treatment/control.

Anopheles albimanus = experiment: Olfactometer attraction test of compounds and compositions; type: in vivo;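 further: olfactometer with a treatment port and a matching control port using identical delivery device and conditions, both opened together, three tests per battery, each run in its own cage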
Aedes albopictus = experiment: as above; type: in vivo; conditions: single substance
Source text: The olfactometer was cleaned after each battery of tests.

Aedes aegypti [2] = experiment: Formulation and verification of the best blend: one treatment vs another treatment in the olfactometer; conditions: 200 μg L-lactic acid (1w) vs. 200 μg L-lactic acid (1w) + Acetone (3B)
Description: as §1

SMILES | LA Avg response (Aedes aegypti [1]) | LA Avg response (Aedes aegypti [1]; listed as LA) | Response (%) (Aedes aegypti [1]; base compound alone (mode of action similar to lactic acid)) | Response with Ace (%) (Aedes aegypti [1]; base compound together with acetone) | Δ [(Resp with Ace) − Resp] (%) (Aedes aegypti [1]; difference between response with acetone and response alone) | L-lactic acid response (%) (Aedes aegypti [1]; single trials, 200 μL of a 1 μg/1 μL methanolic solution, dried 3 minutes in a petri dish, percentage caught of 75 female mosquitos) | % caught (Anopheles albimanus; single substance, 400 μg dish) | % caught (Aedes albopictus; 200 μg, listed as LA) | % mosquitoes trapped, treatment vs treatment (Aedes aegypti [2]) | Acetone Avg response (Aedes aegypti [1]) | Acetone Avg response (Aedes aegypti [1]; listed as Acetone) | Response with L-LA (%), average in parentheses (Aedes aegypti [1]; compound 500 μL with L-lactic acid, average of the trials) | Response (%), average in parentheses (Aedes aegypti [1]; compound alone 500 μL, average of the trials) | Δ [(Resp with LA) − Resp] (%) (Aedes aegypti [1]; difference between response with L-lactic acid and response alone) | Acetone response (%) (Aedes aegypti [1]; single trials, 500 μL, plated on a small petri dish) | % caught (Anopheles albimanus; single treatment, 500 μL) | % caught (Aedes albopictus; 500 μL Dish)
C[C@H](O)C(=O)O [L-lactic acid] | 26% | LA Avg: 1303/51 = 26%, n = 51 trials | 26% | 88% | 62% | 27% | 1.3% | 11.7% and 8.3% | 8% |  |  |  |  |  |  |  | 
CC(C)=O [acetone] |  |  |  |  |  |  |  |  |  | 51% | Acetone Avg: 203/4 = 51%, n = 4 trials | (88%) | (51%) | 37% | 51% and 48% and 53% | 29.6% | 9.1%
